Reference: patent US20240252527A9, “NUCLEOSIDE DRUGS FOR THE TREATMENT OR PREVENTION OF CORONAVIRUS INFECTION AND THEIR USES” (Miracure Biotechnology Limited, priority 2022, published 2024)
Where two headings read alike, the source gives them in different places.

Assays:
OC43 = OC43 Huh7 CPE assay (cytopathic experiment); format: cell-based, coronavirus OC43 (HCoV-OC43); details: for EC50: read-out: OC43 Huh7 CPE assay (μM) EC50; for EC90: read-out: OC43 Huh7 CPE assay (μM) EC90
Procedure, shortened: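 Cells seeded overnight, then two-fold diluted compound added with virus; viability read by CellTiter-Glo after 3 days (229E, MRC5 cells) or 7 days (OC43, Huh7 cells). EC50/EC90 from % inhibition of virus-induced CPE; CC50 from parallel uninfected cytotoxicity runs, by nonlinear fitting.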

229E = 229E MRC5 CPE assay (cytopathic experiment); format: cell-based, coronavirus 229E (HCoV-229E)
[1] = Betacoronavirus 1, Huh-7, 168 h, Huh7 cells, OC43 virus, 7 days, Cell Titer Glo
[2] = Human coronavirus 229E, MRC5, 72 h; read-out: 229E MRC5 CPE assay (μM) EC50
[3] = Human coronavirus 229E, MRC5, 72 h; read-out: 229E MRC5 CPE assay (μM) EC90
[4] = Betacoronavirus 1, OC43, Huh-7, 168 h
[5] = Human coronavirus 229E, MRC5, 72 h, read-out: 229E MRC5 CPE assay (μM) EC50
[6] = Human coronavirus 229E, MRC5, 72 h, read-out: 229E MRC5 CPE assay (μM) EC90

Row | Structure (SMILES) | EC50 (OC43; [1]) [µM] | EC90 (OC43; [1]) [µM] | EC50 (229E; [2]) [µM] | EC90 (229E; [3]) [µM] | EC50 (OC43; [4]) [µM] | EC90 (OC43; [4]) [µM] | EC50 (229E; [5]) [µM] | EC90 (229E; [6]) [µM]
1 | CCN(CC)Cc1cc(Nc2ccnc3cc(Cl)ccc23)ccc1O[P@](=O)(N[C@@H](C)C(=O)OC(C)C)OC[C@H]1O[C@@](C#N)(c2ccc3c(N)ncnn23)[C@H](O)[C@@H]1O [Compound 086] | > 0.5 | > 0.5 | > 0.5 | > 0.5 | – | – | – | –
2 | CC(C)(C)C(=O)OCO[P@](=O)(OC[C@H]1O[C@@](C#N)(c2ccc3c(N)ncnn23)[C@H](O)[C@@H]1O)Oc1cccc2ccccc12 [Compound 217] | – | – | > 0.5 | > 0.5 | > 0.5 | > 0.5 | – | –
3 | CCCC(CCC)C(=O)OCO[P@@]1(=S)OC[C@H]2O[C@@](C#N)(c3ccc4c(N)ncnn34)[C@H](O)[C@@H]2O1 [Compound 144] | – | – | > 0.5 | > 0.5 | > 0.5 | > 0.5 | – | –
4 | CC(C)OC(=O)C(C)(C)N[P@@](=O)(OCOC(=O)C1CCCC1)OC[C@H]1O[C@@](C#N)(c2ccc3c(N)ncnn23)[C@H](O)[C@@H]1O [Compound 267] | – | – | – | – | > 0.5 | > 0.5 | > 0.5 | > 0.5
5 | CCCC(CCC)C(=O)OCO[P@@](=O)(N[C@@H](C)C(=O)OC)OC[C@H]1O[C@@](C#N)(c2ccc3c(N)ncnn23)[C@H](O)[C@@H]1O [Compound 096] | – | – | – | – | 0.1 to 0.5 | 0.1 to 0.5 | < 0.1 | < 0.1
6 | CC(C)OC(=O)C(C)(C)N[P@](=O)(OCOC(=O)C1CCCC1)OC[C@H]1O[C@@](C#N)(c2ccc3c(N)ncnn23)[C@H](O)[C@@H]1O [Compound 268] | – | – | – | – | > 0.5 | > 0.5 | > 0.5 | > 0.5
7 | CCO[P@]1(=O)OC[C@H]2O[C@@](C#N)(c3ccc4c(N)ncnn34)[C@H](O)[C@@H]2O1 [Compound 231] | > 0.5 | > 0.5 | > 0.5 | > 0.5 | – | – | – | –
8 | CC(C)OC(=O)C(C)(C)N[P@](=O)(OCOC(=O)c1cccnc1)OC[C@H]1O[C@@](C#N)(c2ccc3c(N)ncnn23)[C@H](O)[C@@H]1O [Compound 176] | – | – | – | – | > 0.5 | > 0.5 | > 0.5 | > 0.5
9 | CCCC(CCC)C(=O)OCO[P@]1(=O)OC[C@H]2O[C@@](C#N)(c3ccc4c(N)ncnn34)[C@H](O)[C@@H]2O1 [Compound 130] | – | – | – | – | < 0.1 | 0.1 to 0.5 | < 0.1 | 0.1 to 0.5
10 | CCCC(CCC)C(=O)OCO[P@](=O)(N[C@@H](C)C(=O)OCC)OC[C@H]1O[C@@](C#N)(c2ccc3c(N)ncnn23)[C@H](O)[C@@H]1O [Compound 097] | – | – | – | – | 0.1 to 0.5 | 0.1 to 0.5 | < 0.1 | 0.1 to 0.5
11 | CCCC(CCC)C(=O)OCO[P@@](=O)(N[C@@H](C)C(=O)OCC)OC[C@H]1O[C@@](C#N)(c2ccc3c(N)ncnn23)[C@H](O)[C@@H]1O [Compound 098] | – | – | – | – | < 0.1 | 0.1 to 0.5 | < 0.1 | < 0.1
12 | CCC(CC)COC(=O)[C@H](C)NP(=O)(OC[C@H]1O[C@@](C#N)(c2ccc3c(N)ncnn23)[C@H](O)[C@@H]1O)Oc1ccc(Nc2ccnc3cc(Cl)ccc23)cc1CN(CC)CC (some centres unmarked) [Compound 016] | > 0.5 | > 0.5 | > 0.5 | > 0.5 | – | – | – | –
13 | CCC(CC)COC(=O)[C@H](C)NP(=O)(OCOC(=O)C(C)C)OC[C@H]1O[C@@](C#N)(c2ccc3c(N)ncnn23)[C@H](O)[C@@H]1O (some centres unmarked) [Compound 104] | – | – | – | – | > 0.5 | > 0.5 | > 0.5 | > 0.5
14 | CCCC(CCC)C(=O)OC(C)O[P@]1(=O)OC[C@H]2O[C@@](C#N)(c3ccc4c(N)ncnn34)[C@H](O)[C@@H]2O1 (some centres unmarked) [Compound 141] | – | – | – | – | > 0.5 | > 0.5 | > 0.5 | > 0.5
15 | N#C[C@@]1(c2ccc3c(N)ncnn23)O[C@@H]2COP(=O)(O)O[C@H]2[C@H]1OC(=O)CCCc1ccccc1 [Compound 260] | – | – | – | – | > 0.5 | > 0.5 | 0.1 to 0.5 | 0.1 to 0.5
16 | CCCN(CCC)S(=O)(=O)c1ccc(C(=O)OCO[P@@]2(=O)OCC3O[C@@](C#N)(c4ccc5c(N)ncnn45)[C@H](O)[C@@H]3O2)cc1 (some centres unmarked) [Compound 156] | – | – | – | – | > 0.5 | > 0.5 | 0.1 to 0.5 | > 0.5
17 | CCC(CC)COC(=O)[C@H](C)N[P@@](=O)(OCCN(CC)CCCC(C)Nc1ccnc2cc(Cl)ccc12)OC[C@H]1O[C@@](C#N)(c2ccc3c(N)ncnn23)[C@H](O)[C@@H]1O (some centres unmarked) [Compound 068] | – | – | – | – | > 0.5 | > 0.5 | > 0.5 | > 0.5
18 | [2H]c1cc([C@]2(C#N)O[C@@H]3CO[P@](=O)(OCCSC(=O)C(C)(C)C)O[C@H]3[C@H]2O)n2ncnc(N)c12 [Compound 238] | – | – | – | – | < 0.1 | < 0.1 | < 0.1 | < 0.1
19 | N#C[C@@]1(c2ccc3c(N)ncnn23)O[C@@H]2CO[P@](=O)(OCOC(=O)Oc3ccccc3)O[C@H]2[C@H]1O [Compound 228] | – | – | – | – | > 0.5 | > 0.5 | > 0.5 | > 0.5
20 | N#C[C@@]1(c2ccc3c(N)ncnn23)O[C@@H]2CO[P@](=O)(Oc3ccccc3)O[C@H]2[C@H]1O [Compound 221] | – | – | > 0.5 | > 0.5 | > 0.5 | > 0.5 | – | –
